Article PMC10584170, “Machine learning-based phenotypic imaging to characterise the targetable biology of Plasmodium falciparum male gametocytes for the development of transmission-blocking antimalarials” (PLOS Pathogens, 2023)
Like-named read-outs stand apart in the source and are kept apart here.

Tests used:
[1] = test system: P. falciparum male gametocytes; experiment: PhIDDLI screening assay, 24 h preincubation at 10xIC50, tubulin/DAPI imaging of male gametogenesis; assay type: cell-based, Plasmodium falciparum NF54; details: approximately 10xIC50, fixed 20 min post-induction
Procedure: Mature gametocytes were treated for 24h with approximately 10xIC50 of test compounds or DMSO as a solvent control. Male gametogenesis was then induced by lowering the temperature from 37°C to ~20°C and adding xanthurenic acid. 20min later, when male gametogenesis (exflagellation) could be expected to peak, all samples were fixed. A sample of non-induced DMSO-treated gametocytes was fixed with 4% paraformaldehyde to provide an unactivated gametocyte control for comparison. The cells were then processed for immunofluorescence using an antibody against alpha-tubulin II and DNA staining with 4′,6-diamidino-2-phenylindole (DAPI) and visualised by fluorescence microscopy. Tubulin-bright cells from each treated sample were imaged and captured at random.
Cells were identified using a semi-automated pipeline established in the ICY BioImageAnalysis (https://icy.bioimageanalysis.org/) protocols module. Images and accompanying bounding boxes representing the outlines of identified cells were then passed to the PhIDDLI pipeline. PhIDDLI consists of several open source image processing and AI/ML modules connected for seamless processing, clustering and visualisation of cellular phenotypes (Fig 3A). […] To focus on the overall cellular phenotype rather than potentially confounding variable immunostaining intensities between experimental replicates, cells were transformed so that the range of staining intensities for each channel were normalised to fall between a 0–255 pixel intensity value. Then, using the Albumentations module (https://albumentations.ai/) to augment the dataset and control for cells in different orientations, each extracted cell image was rotated 90, 180 and 270 degrees and mirrored so that each cell was represented eight different times in the dataset. The augmented images were then passed to the EffcientNet-B1 module (https://github.com/tensorflow/tpu/tree/master/models/official/efficientnet) (a pretrained neural network developed for image processing) which extracted 1,000 distinct numerical features from each individual cell image. The EfficientNet-B1 was selected from amongst the other EfficientNet models due to its input image size (240 pixels) best matching the size of the individual cell images in the dataset, therefore ensuring maximal input data whilst allowing acceptable computation time on a desktop computer. […]
Mature gametocyte cultures were divided into 100 μl “microcultures” in pre-warmed 1.5 ml tubes also containing 100 μl complete culture medium with test compounds at a final concentration of 10xIC50 or 0.5% DMSO as a solvent control. Tubes were gassed and incubated at 37°C for 24 h. The entire compound library was screened once, spread over four different experiments, each with two DMSO control tubes. An 8% formaldehyde solution was prepared by diluting 16% methanol-free formaldehyde in an equal volume of phosphate-buffered saline (PBS). In each experiment, one DMSO control tube was fixed with equal volume of 8% formaldehyde (4% final concentration) at 37°C to provide an “unactivated” gametocyte control. Gametogenesis was then triggered in the remaining DMSO control tube and all compound tubes by adding 10 μl ookinete medium, and they were immediately incubated at room temperature. After 20 min (when exflagellation is maximal), all remaining tubes were fixed for 30 min.
100 μl of the fixed cell suspensions were added to wells of a 24 well plate containing 1ml PBS and a poly-l-lysine-coated glass coverslip.

[2] = test system: P. falciparum male gametocytes; experiment: P. falciparum Dual Gamete Formation Assay (PfDGFA), male readout (exflagellation); assay type: cell-based, Plasmodium falciparum NF54; details: for IC50: this study, read-out: Pf DGFA IC50 MALE
How it was run: (§1)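 NF54 mature gametocytes (d14), cpd 24 h 37°C hypoxic gas; trigger: xanthurenic acid ookinete medium + Cy3 anti-Pfs25, 4°C 4 min → 28°C 4 min. Male: exflagellation centres, brightfield x6. Female: Pfs25+ gametes, fluorescence, +24 h 28°C dark.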

[3] = test system: P. falciparum female gametocytes; experiment: P. falciparum Dual Gamete Formation Assay (PfDGFA), female readout (Pfs25-positive female gametes); assay type: cell-based, Plasmodium falciparum NF54; details: for IC50: this study, read-out: Pf DGFA IC50 FEM
How it was run: as §1

[4] = test system: P. falciparum male gametocytes; experiment: PhIDDLI timecourse assay, compound added at timepoints after triggering male gametogenesis; assay type: cell-based, Plasmodium falciparum NF54; details: for impact on exflagellation: compound added concurrent with triggering gametogenesis or at any other point
Procedure: To gain greater understanding of their activity, selected molecules displaying different inhibition phenotypes in the initial screen were re-tested. Rather than subjecting gametocytes to a 24h preincubation prior to inducing gametogenesis, compounds were added at varying timepoints after triggering male gametogenesis. Samples were then fixed 20 min post-induction, imaged and analysed similarly using the PhIDDLI pipeline.
Alternatively, if compound action over time was to be assessed, 1.5ml tubes with appropriate dilutions of test compounds were prepared for each timepoint. Gametogenesis was then triggered in the mature gametocyte culture with ookinete medium and temperature decrease from 37°C. At appropriate times, 200 μl of triggered culture was sampled and mixed with test compound. All samples were then allowed to continue gametogenesis and fixed as described previously with paraformaldehyde after 20 min (when a DMSO-treated sample could be expected to be exflagellating).
100 μl of the fixed cell suspensions were added to wells of a 24 well plate containing 1ml PBS and a poly-l-lysine-coated glass coverslip. Cells were allowed to settle and adhere to the coverslip overnight at 4°C before coverslips were transferred to a hydrophobic membrane (Parafilm) for immunofluorescence staining in a humidified, dark box. Cells were permeabilised with 0.1% Triton-X100 in PBS for 10 min before washing in PBS three times. Non-specific binding was blocked by incubating coverslips with PBS + 10% fetal bovine serum (FBS) (blocking buffer) for 1 h. Gametocytes and microgametes were visualised by labelling with an anti-alpha tubulin antibody (raised from chicken embryo brain tubulin but cross-reacts with many other species) (clone DM1A (Sigma)) 1:500 dilution in blocking buffer for 1 h, washed as before, and then stained with an anti-mouse Alexa488 secondary antibody (Thermo-Fisher) 1:1,000 dilution in blocking buffer for a further 1 h. After a final series of washes, the coverslips were mounted on glass slides with VectaShield mountant (Vector Laboratories) containing 4′,6-diamidino-2-phenylindole (DAPI) to visualise cellular DNA.
All slides were imaged using a Nikon Ti fluorescence microscope using an x100 oil objective and 1.5x zoom. For each sample, tubulin-postive, DAPI-positive stained gametocytes/gametes were imaged at random. Z-stack images with 0.3μm slices were captured for each field of view and images deconvolved and transformed by maximum intensity projection within the Nikon NIS Elements software. Within raw images, cells were initially identified by an automated analysis pipeline developed in ICY Bioimage Analysis based upon the intensity of the tubulin staining captured which assigns a region of interest (ROI) around each cell. All ROIs were reviewed by a trained operator and adjusted if necessary to reflect the true outline of the cell (for example if two cells touching had been allocated the same ROI). Raw images contained between 1 and 8 extractable cells.
Code for the PhIDDLI pipeline was written in Python 3.8 and executed by command line within a 64-bit Ubuntu virtual machine running within Oracle VM VirtualBox 6.1. […] Principle component analysis of compound phenotypes (Fig 5) was performed using ClustViz (https://biit.cs.ut.ee/clustvis/) using ln(x+1) transformation, and k-means clustering of the resultant PCA data was coded in R and executed in R Studio version 1.1.456 to identify optimum cluster using the elbow method.

[5] = test system: P. falciparum gametocytes; experiment: P. falciparum Gametocyte Viability ATP Assay (PfGCT); assay type: cell-based, Plasmodium falciparum; details: Mean TOX HepG2 over GC-ATP IC50; GREEN = >10-fold; RED = <10-fold
Text: Fig 1 The activity of TCAMS compound identified in the Pf DGFA screen. (A) 85 molecules were confirmed active in the Pf DGFA. 58 were previously identified in one or more transmission-blocking screens. […] No molecule was identified with >4.7-fold greater activity against female gametocytes. Abbreviations (IC50 = concentration giving 50% inhibition, PbODA = P. berghei Ookinete Development Assay, PfDGFA = P. falciparum Dual Gamete Formation Assay, PfFGAA = P. falciparum Female Gametocyte Activation Assay, PfGCT = P. falciparum Gametocyte Viability ATP Assay).

[6] = test system: P. falciparum gametocytes; design: method as in Almela et al 2015; details: ref Almela et al 2015; read-out: Pf Gametocyte viability (ATP) GC-ATP IC50; cited from earlier work
[7] = test system: HepG2 cells; details: cited from earlier work
[8] = test system: HepG2 cells; experiment: HepG2 cytotoxicity counter-screen; details: mean of the HepG2 TOX50 values
[9] = test system: P. falciparum female gametocytes; experiment: P. falciparum Female Gametocyte Activation Assay (PfFGAA); assay type: cell-based, Plasmodium falciparum; details: Mean TOX HepG2 over FGAA IC50; GREEN = >10-fold; RED = <10-fold
[10] = test system: P. falciparum female gametocytes; design: method as in Miguel-Blanco et al 2017; details: ref Miguel-Blanco et al 2017; read-out: Pf female gametogenesis FGAA IC50; cited from earlier work
[11] = test system: P. berghei ookinete development; experiment: P. berghei Ookinete Development Assay (PbODA); assay type: cell-based, Plasmodium berghei; details: Mean TOX HepG2 over Pb ODA value; GREEN = >10-fold; RED = <10-fold

SMILES	Cellular phenotype of male gametocytes [1]	Cytotox ratio Pf Male [2]	IC50 [2] [nM]	Cytotox ratio Pf Female [3]	IC50 [3] [nM]	impact on exflagellation [4]	Cytotox ratio Pf GC-ATP [5]	IC50 [6] [nM]	GC-ATP TOX50 HepG2 [7] [µM]	Mean TOX [8] [µM]	Cytotox ratio Pf FGAA [9]	IC50 [10] [nM]	FGAA TOX50 HepG2 [7] [µM]	cells exflagellating ([4]; compound added concurrent with triggering gametogenesis, DMSO control 43.7%) [%]	Cytotox ratio Pb Ookinete [11]	ODA TOX50 HepG2 ([7]; HepG2 value reported with the ODA screen, ref Delves et al 2019) [µM]
O=S(=O)(NCC1(O)CCOc2ccccc21)c1ccc(Br)s1 (stereo not drawn) [DDD01035881, reference compound]	arrested male gametogenesis late															
COc1ccc2nc3cc(Cl)ccc3c(NCCCCNc3c4ccc(Cl)cc4nc4ccc(OC)cc34)c2c1 [TC02]		22.1	380	22.1	380	little-to-no impact	42.0	200	14.47	8.39						
CC(C)(C)c1ccc(-c2nc3c(ccc4nc(N)nc(N)c43)[nH]2)cc1.Cl [TC05]		17.1	180	3.2	970	little-to-no impact	14.6	210	3.85	3.07	11.8	260	2.12			
O=C(c1ccc([N+](=O)[O-])o1)N1CCC(Cc2ccc(C(F)(F)F)cc2)CC1 [TC15]	retain their falciform shape but have a condensed mass of unreplicated DNA and several thin microtubule structures	58.0	400	52.7	440		89.2	260	14.11	23.20	145.0	160	27.05			
CCN(CC)CCN(Cc1ccc(-c2ccc(C(F)(F)F)cc2)cc1)C(=O)Cn1cc(Cc2cnn(C)c2)c(=O)nc1/C=C/c1cccc(F)c1F.O=C(O)C(O)C(O)C(=O)O [TC18]	retain their falciform shape but have a condensed mass of unreplicated DNA and several thin microtubule structures	19.6	630	3.0	4100		72.7	170	14.4	12.35	14.2	870	9.69			
Fc1ccc2[nH]c(-c3ccc(-c4ccc(CNCCN5CCNCC5)cc4)s3)nc2c1.O=C(O)C(F)(F)F [TC23]		12.4	1970	3.4	7180		46.3	530	25	24.53				19.8		
COc1cc(-c2nc(C(C)(C)CN)[nH]c2-c2ccncc2)ccc1Br.Cl [TC27]	unactivated phenotype consistent with total arrest of gametogenesis	23.6	1770	25.9	1610					41.74					31592.6	39.811
